Each structure is given as a SMILES string. Where two headings read alike, the source gives them in different places. Bounds are passed on as bounds.

The target in the assay is T1, BRM (Homo sapiens, UniProt P51531).
T1 construct: In-Cell Western Screen of BRM Degradation in SW1573 Cells; endogenous in cells; host or cells: SW1573
Put plainly: In-cell Western screen of BRM degradation in SW1573 cells (Dmax and DC50). The format is cell-based. The gist of the method: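 SW1573, overnight cpd exposure (18-20 h), 0.1% DMSO final. PFA fix, 0.5% Triton permeabilization, block; IR secondaries at 800/680 nm. Odyssey read → Dmax, DC50.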

The mark [1] stands for this setting: BRM degradation, read-out: BRM DC50.
The mark [2] stands for this setting: SW1573, % degraded, when tested at the top concentration of between 0.3 and 10 μM, read-out: BRM Dmax (%).
The mark [3] stands for this setting: degradation of BRM, read-out: BRM DC50.
Where [4] appears, read: BRM degradation, SW1573 cells, read-out: DC50.
Setting [5] is: BRM degradation, SW1573 cells, Table 2D, read-out: *DC50.
[6] abbreviates: BRM degradation, SW1573 cells, tested at the top concentration of between 0.3 and 10 μM, read-out: Dmax (%) (% degraded).
Where [7] appears, read: BRM degradation, SW1573 cells, when tested at the top concentration of between 0.3 and 10 μM, read-out: Dmax (%) (% degraded).

T1 sequence (P51531 whole entry): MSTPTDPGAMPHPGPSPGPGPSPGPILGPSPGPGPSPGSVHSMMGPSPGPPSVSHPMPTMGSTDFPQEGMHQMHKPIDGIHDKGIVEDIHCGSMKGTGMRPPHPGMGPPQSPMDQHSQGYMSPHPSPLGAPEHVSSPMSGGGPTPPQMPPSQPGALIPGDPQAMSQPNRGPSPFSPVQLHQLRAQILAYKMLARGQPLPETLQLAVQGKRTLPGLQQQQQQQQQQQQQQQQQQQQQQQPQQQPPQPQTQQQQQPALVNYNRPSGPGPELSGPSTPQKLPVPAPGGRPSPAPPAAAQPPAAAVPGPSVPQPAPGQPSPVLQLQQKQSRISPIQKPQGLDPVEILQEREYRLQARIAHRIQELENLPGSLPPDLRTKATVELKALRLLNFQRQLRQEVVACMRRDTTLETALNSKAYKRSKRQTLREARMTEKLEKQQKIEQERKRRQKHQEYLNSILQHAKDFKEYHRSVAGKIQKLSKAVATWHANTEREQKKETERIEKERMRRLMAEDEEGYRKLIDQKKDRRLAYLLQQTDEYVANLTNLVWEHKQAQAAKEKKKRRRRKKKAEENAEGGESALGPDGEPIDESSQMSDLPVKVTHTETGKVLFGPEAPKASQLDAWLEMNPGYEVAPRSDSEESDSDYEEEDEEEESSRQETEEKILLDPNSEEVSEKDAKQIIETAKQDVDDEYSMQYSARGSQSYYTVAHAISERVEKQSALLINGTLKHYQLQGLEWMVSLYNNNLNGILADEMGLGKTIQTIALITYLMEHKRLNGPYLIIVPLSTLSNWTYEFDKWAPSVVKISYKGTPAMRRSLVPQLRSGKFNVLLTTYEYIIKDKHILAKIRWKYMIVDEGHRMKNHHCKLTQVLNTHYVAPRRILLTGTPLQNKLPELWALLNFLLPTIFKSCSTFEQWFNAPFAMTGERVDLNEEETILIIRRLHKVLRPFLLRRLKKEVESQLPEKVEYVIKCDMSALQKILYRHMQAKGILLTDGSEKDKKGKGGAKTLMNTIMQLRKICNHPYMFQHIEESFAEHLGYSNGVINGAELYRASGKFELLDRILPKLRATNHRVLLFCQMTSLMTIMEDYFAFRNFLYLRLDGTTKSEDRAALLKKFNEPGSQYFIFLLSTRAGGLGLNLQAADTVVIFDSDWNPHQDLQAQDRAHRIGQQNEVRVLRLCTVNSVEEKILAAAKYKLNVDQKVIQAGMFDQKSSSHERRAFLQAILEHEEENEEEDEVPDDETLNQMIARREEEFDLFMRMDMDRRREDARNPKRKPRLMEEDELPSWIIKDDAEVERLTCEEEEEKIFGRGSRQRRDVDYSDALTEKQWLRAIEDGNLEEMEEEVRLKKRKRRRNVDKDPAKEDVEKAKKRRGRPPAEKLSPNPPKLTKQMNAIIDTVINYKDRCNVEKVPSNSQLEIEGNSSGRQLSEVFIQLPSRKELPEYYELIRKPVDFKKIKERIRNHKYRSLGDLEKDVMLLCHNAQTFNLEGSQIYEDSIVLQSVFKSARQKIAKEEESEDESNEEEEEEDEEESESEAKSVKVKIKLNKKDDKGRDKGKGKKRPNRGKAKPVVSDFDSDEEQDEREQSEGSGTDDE

Regarding `Cc1cc([C@H](C(=O)N2C[C@H](O)C[C@H]2C(=O)N[C@H](COCCCCCc2cc(-c3ccccc3O)nnc2N)c2ccc(-c3scnc3C)cc2)C(C)C)on1` [compound 528, (2S,4R)-N-((S)-2-((5-(3-amino-6-(2-hydroxyphenyl)pyridazin-4-yl)pentyl)oxy)-1-(4-(4-methylthiazol-5-yl)phenyl)ethyl)-4-hydroxy-1-((R)-3-methyl-2-(3-methylisoxazol-5-yl)butanoyl)pyrrolidine-2-carboxamide], the DC50 (usually the concentration giving 50% degradation) under setting [1] is more than 30 nM.

Take `Cc1ncsc1-c1ccc([C@H](C)NC(=O)[C@@H]2C[C@@H](O)CN2C(=O)[C@H](c2cc(N3CCC(CC4CCN(C[C@H]5C[C@H](Oc6cc(N7C8CCC7CN(c7cc(-c9ccccc9O)nnc7N)C8)ccn6)C5)CC4)CC3)no2)C(C)C)cc1` [compound 472, (2S,4R)-1-((2S)-2-(3-(4-((1-(((1r,3r)-3-((4-(3-(3-amino-6-(2-hydroxyphenyl)pyridazin-4-yl)-3,8-diazabicyclo[3.2.1]octan-8-yl)pyridin-2-yl)oxy)cyclobutyl)methyl)piperidin-4-yl)methyl)piperidin-1-yl)isoxazol-5-yl)-3-methylbutanoyl)-4-hydroxy-N-((S)-1-(4-(4-methylthiazol-5-yl)phenyl)ethyl)pyrrolidine-2-carboxamide]: the DC50 (target protein degradation, read-out: BRM DC50) is more than 30 nM.

As for `Cc1ncsc1-c1ccc([C@H](C)NC(=O)[C@@H]2C[C@@H](O)CN2C(=O)[C@@H](c2cc(OCCC3CCN([C@H]4C[C@H](CN5CCOC6(CCN(c7cc(-c8ccccc8O)nnc7N)CC6)C5)C4)CC3)no2)C(C)C)cc1` [compound 445, (2S,4R)-1-((R)-2-(3-(2-(1-((1r,3R)-3-((9-(3-amino-6-(2-hydroxyphenyl)pyridazin-4-yl)-1-oxa-4,9-diazaspiro[5.5]undecan-4-yl)methyl)cyclobutyl)piperidin-4-yl)ethoxy)isoxazol-5-yl)-3-methylbutanoyl)-4-hydroxy-N-((S)-1-(4-(4-methylthiazol-5-yl)phenyl)ethyl)pyrrolidine-2-carboxamide], the Dmax – broadly, the largest share of the target that was removed – under setting [2] was more than 75%. In addition, the DC50 under setting [3] is less than 2.5 nM.

For the compound `Cc1ncsc1-c1ccc([C@H](C)NC(=O)[C@@H]2C[C@@H](O)CN2C(=O)[C@@H](c2cc(OCCN3CC[C@H](O[C@H]4C[C@H](Oc5cc(N6C7CCC6CN(c6cc(-c8ccccc8O)nnc6N)C7)ccn5)C4)C[C@@H]3C)no2)C(C)C)cc1` (single isomer, unassigned) [compound 636], the DC50 under setting [4] is less than 2.5 nM. Where the note is “BRM degradation, SW1573 cells, read-out: Dmax (% degraded)”, the Dmax was more than 75%.

Regarding `COc1nc(-c2scnc2C)c(F)cc1[C@@H](C)NC(=O)[C@@H]1C[C@@H](O)CN1C(=O)[C@@H](c1cc(OCCN2CCC(O[C@H]3C[C@H](Oc4cc(N5C6CCC5CN(c5cc(-c7ccccc7O)nnc5N)C6)ccn4)C3)CC2)no1)C(C)C` [compound 564, (2S,4R)-1-((2R)-2-(3-(2-(4-((1r,3R)-3-((4-(3-(3-amino-6-(2-hydroxyphenyl)pyridazin-4-yl)-3,8-diazabicyclo[3.2.1]octan-8-yl)pyridin-2-yl)oxy)cyclobutoxy)piperidin-1-yl)ethoxy)isoxazol-5-yl)-3-methylbutanoyl)-N-((R)-1-(5-fluoro-2-methoxy-6-(4-methylthiazol-5-yl)pyridin-3-yl)ethyl)-4-hydroxypyrrolidine-2-carboxamide], the DC50 under setting [5] was more than 30 nM.

Turning to `Cc1ncsc1-c1ccc([C@H](C)NC(=O)[C@@H]2C[C@@H](O)CN2C(=O)[C@@H](c2cc(OCCN3CCC(O[C@H]4C[C@H](Oc5cc(N6C7CCC6CN(c6cc(-c8ccccc8O)nnc6N)C7)ccn5)C4)CC3)no2)C(C)C)c(F)c1` [compound 240, (2S,4R)-1-((2R)-2-(3-(2-(4-((1r,3R)-3-((4-(3-(3-amino-6-(2-hydroxyphenyl)pyridazin-4-yl)-3,8-diazabicyclo[3.2.1]octan-8-yl)pyridin-2-yl)oxy)cyclobutoxy)piperidin-1-yl)ethoxy)isoxazol-5-yl)-3-methylbutanoyl)-N-((S)-1-(2-fluoro-4-(4-methylthiazol-5-yl)phenyl)ethyl)-4-hydroxypyrrolidine-2-carboxamide], the DC50 under setting [4] is less than 2.5 nM. Under setting [6], the Dmax was more than 75%.

As for `Cc1ncsc1-c1ccc(CNC(=O)[C@@H]2C[C@@H](O)CN2C(=O)[C@@H](c2cc(OCCN3CCN(CCOCCn4cc(-c5cc(-c6ccccc6O)nnc5N)cn4)CC3)no2)C(C)C)cc1` [compound 124, (2S,4R)-1-((R)-2-(3-(2-(4-(2-(2-(4-(3-amino-6-(2-hydroxyphenyl)pyridazin-4-yl)-1H-pyrazol-1-yl)ethoxy)ethyl)piperazin-1-yl)ethoxy)isoxazol-5-yl)-3-methylbutanoyl)-4-hydroxy-N-(4-(4-methylthiazol-5-yl)benzyl)pyrrolidine-2-carboxamide], under setting [4], the DC50 is more than 30 nM. Besides, under setting [7], the Dmax is more than 75%.

For `Cc1ncsc1-c1ccc([C@H](C)NC(=O)[C@@H]2C[C@@H](O)CN2C(=O)[C@@H](c2cc(OCCN3CCC(O[C@H]4C[C@H](Oc5cc(N6C7CCC6CN(c6cc(-c8ccccc8OP(=O)(O)O)nnc6N)C7)ccn5)C4)CC3)no2)C(C)C)cc1` [compound 506, 2-(6-amino-5-(8-(2-((1R,3r)-3-((1-(2-((5-((R)-1-((2S,4R)-4-hydroxy-2-(((S)-1-(4-(4-methylthiazol-5-yl)phenyl)ethyl)carbamoyl)pyrrolidin-1-yl)-3-methyl-1-oxobutan-2-yl)isoxazol-3-yl)oxy)ethyl)piperidin-4-yl)oxy)cyclobutoxy)pyridin-4-yl)-3,8-diazabicyclo[3.2.1]octan-3-yl)pyridazin-3-yl)phenyl dihydrogen phosphate], the DC50 under setting [1] was less than 2.5 nM. Besides, the greatest degradation seen (Dmax) under setting [2] is more than 75%.

`Cc1ncsc1-c1ccc([C@H](C)NC(=O)[C@@H]2C[C@@H](O)CN2C(=O)[C@@H](c2cc(OCCN3CCN(CCOc4cc(N5C6CCC5CN(c5cc(-c7ccccc7O)nnc5N)C6)ccn4)C[C@@H]3C)no2)C(C)C)cc1` [compound 141, (2S,4R)-1-((2R)-2-(3-(2-((2S)-4-(2-((4-(3-(3-amino-6-(2-hydroxyphenyl)pyridazin-4-yl)-3,8-diazabicyclo[3.2.1]octan-8-yl)pyridin-2-yl)oxy)ethyl)-2-methylpiperazin-1-yl)ethoxy)isoxazol-5-yl)-3-methylbutanoyl)-4-hydroxy-N-((S)-1-(4-(4-methylthiazol-5-yl)phenyl)ethyl)pyrrolidine-2-carboxamide]: under setting [4], the DC50 is less than 2.5 nM. The maximal degradation (Dmax) under setting [7] is more than 75%.

For `Cc1ncsc1-c1ccc([C@H](C)NC(=O)[C@@H]2C[C@@H](O)CN2C(=O)[C@@H](c2cc(N3CCN(CC4CCN(C[C@H]5C[C@H](Oc6cc(N7C8CCC7CN(c7cc(-c9ccccc9O)nnc7N)C8)ccn6)C5)CC4)CC3)no2)C(C)C)cn1` [compound 427, (2S,4R)-1-((2R)-2-(3-(4-((1-(((1r,3r)-3-((4-(3-(3-amino-6-(2-hydroxyphenyl)pyridazin-4-yl)-3,8-diazabicyclo[3.2.1]octan-8-yl)pyridin-2-yl)oxy)cyclobutyl)methyl)piperidin-4-yl)methyl)piperazin-1-yl)isoxazol-5-yl)-3-methylbutanoyl)-4-hydroxy-N-((S)-1-(6-(4-methylthiazol-5-yl)pyridin-3-yl)ethyl)pyrrolidine-2-carboxamide], under setting [2], the Dmax was more than 75%. Also, the DC50 under setting [3] is less than 2.5 nM.

Regarding `Cc1ncsc1-c1ccc([C@H](C)NC(=O)[C@@H]2C[C@@H](O)CN2C(=O)[C@@H](c2cc(OCC[C@H]3CCN(C[C@H]4C[C@H](Oc5cc(N6C7CCC6CN(c6cc(-c8ccccc8O)nnc6N)C7)ccn5)C4)[C@@H](C)[C@H]3C)no2)C(C)C)cc1` (single isomer, unassigned) [compound 586], the Dmax (BRM degradation, SW1573 cells, Table 2D, read-out: **Dmax (%) (% degraded)) was more than 75%. For the same compound, the DC50 under setting [5] was less than 2.5 nM.

`Cc1ncsc1-c1ccc([C@H](C)NC(=O)[C@@H]2C[C@@H](O)CN2C(=O)[C@H](c2cc(OC/C=C/c3ccc(O[C@H]4C[C@H](Oc5cc(N6C7CCC6CN(c6cc(-c8ccccc8O)nnc6N)C7)ccn5)C4)cn3)no2)C(C)C)cc1` [compound 186, (2S,4R)-1-((2S)-2-(3-(((E)-3-(5-((1r,3S)-3-((4-(3-(3-amino-6-(2-hydroxyphenyl)pyridazin-4-yl)-3,8-diazabicyclo[3.2.1]octan-8-yl)pyridin-2-yl)oxy)cyclobutoxy)pyridin-2-yl)allyl)oxy)isoxazol-5-yl)-3-methylbutanoyl)-4-hydroxy-N-((S)-1-(4-(4-methylthiazol-5-yl)phenyl)ethyl)pyrrolidine-2-carboxamide]: the DC50 under setting [4] fell in the range of 10 to 30 nM. Also, under setting [6], the Dmax was more than 75%.

With `Cc1ncsc1-c1ccc([C@H](C)NC(=O)[C@@H]2C[C@@H](O)CN2C(=O)[C@H](c2cc(OCCOCCOCCCCN3CCC4(CCN(c5cc(-c6ccccc6O)nnc5N)CC4)C3)no2)C(C)C)cc1` [compound 73, (2S,4R)-1-((S)-2-(3-(2-(2-(4-(8-(3-amino-6-(2-hydroxyphenyl)pyridazin-4-yl)-2,8-diazaspiro[4.5]decan-2-yl)butoxy)ethoxy)ethoxy)isoxazol-5-yl)-3-methylbutanoyl)-4-hydroxy-N-((S)-1-(4-(4-methylthiazol-5-yl)phenyl)ethyl)pyrrolidine-2-carboxamide], under setting [4], the DC50 is more than 30 nM.

Values taken from patent publication US12539292B2, “BRM targeting compounds and associated methods of use” (Arvinas Operations, Inc., priority 2018, dated 2026).
